Test results published in the supplement of paper PMC10307832.

How the values were obtained:
Assay in all cases: relative viability (nuclei count vs DMSO), 5 days (fraction); higher = more cells survive
[1] = compound: CC1=NC=CC(=C1)C2=CC=C(C=C2)CC(=O)NC3=CC=C(C=C3)C4=CN=CC=C4 [Wnt-C59] + CS(=O)(=O)N1CCN(Cc2cc3nc(-c4cccc5[nH]ncc45)nc(N4CCOCC4)c3s2)CC1 [Pictilisib] (partner 1 µM)
Procedure, shortened: (§1)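 Lung cancer cell lines in 1536-well plates got either a single drug or a fixed anchor-drug dose together with five library-drug doses (not always all listed) in √10 steps, by pin tool, on the day after seeding. Nuclei were counted after 5 days, and relative viability is the treated-to-vehicle ratio of nuclei counts. Values are medians of duplicate plates.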

[2] = compound: CS(=O)(=O)CCNCc1ccc(-c2ccc3ncnc(Nc4ccc(OCc5cccc(F)c5)c(Cl)c4)c3c2)o1 [Lapatinib] + CCNC(=O)c1noc(-c2cc(C(C)C)c(O)cc2O)c1-c1ccc(CN2CCOCC2)cc1 [Luminespib] (partner 0.01 µM)
Procedure, shortened: as §1

[3] = compound: CS(=O)(=O)CCNCc1ccc(-c2ccc3ncnc(Nc4ccc(OCc5cccc(F)c5)c(Cl)c4)c3c2)o1 [Lapatinib] + Cc1cc(Nc2cc(N3CCN(C)CC3)nc(Sc3ccc(NC(=O)C4CC4)cc3)n2)n[nH]1 [Tozasertib] (partner 0.1 µM)
Procedure, shortened: as §1

[4] = compound: CS(=O)(=O)CCNCc1ccc(-c2ccc3ncnc(Nc4ccc(OCc5cccc(F)c5)c(Cl)c4)c3c2)o1 [Lapatinib] + O=C(c1cc(Cc2n[nH]c(=O)c3ccccc23)ccc1F)N1CCN(C(=O)C2CC2)CC1 [Olaparib] (partner 8 µM)
Procedure, shortened: as §1

Cell Line	relative viability ([1]; first compound 0.001 µM)	relative viability ([1]; first compound 0.01 µM)	relative viability ([1]; first compound 0.03162 µM)	relative viability ([1]; first compound 0.1 µM)	relative viability ([2]; first compound 0.02 µM)	relative viability ([2]; first compound 0.06325 µM)	relative viability ([2]; first compound 0.2 µM)	relative viability ([2]; first compound 0.6325 µM)	relative viability ([2]; first compound 2 µM)	relative viability ([3]; first compound 0.02 µM)	relative viability ([3]; first compound 0.06325 µM)	relative viability ([3]; first compound 0.2 µM)	relative viability ([3]; first compound 0.6325 µM)	relative viability ([3]; first compound 2 µM)	relative viability ([4]; first compound 0.02 µM)	relative viability ([4]; first compound 0.06325 µM)	relative viability ([4]; first compound 0.2 µM)	relative viability ([4]; first compound 0.6325 µM)	relative viability ([4]; first compound 2 µM)
HCC-827	0.83	1.07	1.15	0.971	0.74	0.8	0.629	0.624	0.253	0.41	0.418	0.414	0.412	0.144	0.591	0.656	0.533	0.678	0.549
SK-LU-1	0.476	0.558	0.638	0.559	0.176	0.223	0.238	0.175	0.2	0.32	0.306	0.3	0.29	0.235	0.298	0.449	0.565	0.555	0.433
EPLC-272H	0.366	0.265	0.343	0.338			0.44	0.205	0.359			0.21	0.2	0.239	0.7	0.544	0.767	0.614	0.527
NCI-H322M	0.517	0.426	0.491	0.414	0.883	0.6	0.758	0.753	0.633	0.437	0.457	0.395	0.477	0.343	0.756	0.711	0.836	0.818	0.763
NCI-H1944	0.372	0.312	0.322	0.336	0.723	0.435	0.623	0.552	0.522	0.245	0.216	0.239	0.205	0.181	0.397	0.389	0.381	0.354	0.327
NCI-H2228	0.479	0.505	0.573	0.252	0.137	0.128	0.145	0.143	0.123	0.25	0.258	0.145	0.205	0.135	0.562	0.537	0.728	0.482	0.436
NCI-H1755	0.374	0.433	0.459	0.433	0.421	0.423	0.349	0.579	0.378	0.549	0.583	0.559	0.483	0.486	0.855	0.837	0.885	0.882	0.815
ChaGo-K-1	0.461		0.862	1.02	0.636	0.448	0.603	0.563	0.57	0.218	0.194	0.206	0.2	0.208	0.418	0.471	0.478	0.431	0.396
NCI-H2170	0.3	0.279	0.309	0.383	0.664	0.385	0.433	0.462	0.223	0.704	0.553	0.565	0.403	0.169	0.564	0.483	0.501	0.459	0.118
LXF-289	0.767	0.774	0.853	0.794	0.709	0.459	0.603	0.603	0.65	0.178	0.155	0.177	0.173	0.168	1.06	0.97	1.04	1.04	0.998
LCLC-97TM1	0.23	0.231	0.211	0.187			0.676	0.765	0.875			0.214	0.229	0.176		0.342	0.417	0.387	0.345
NCI-H2347	0.628	0.566	0.86	0.634		0.156	0.638	0.523	0.361		0.57	0.52	0.439	0.399	0.636	0.568	0.598	0.629	0.527
PC-3 [JPC-3]	0.832	0.765	0.822	0.72	0.74	0.665	0.648	0.722	0.477	0.876	0.83	0.909	0.803	0.506		1.09		1.16	0.883
H3255	0.565	0.359	0.431	0.49	0.471	0.676	0.879	0.805	0.757	0.317	0.45	0.591	0.527	0.282	0.526	0.516	0.634	0.469	0.325
HOP-62	0.63	0.76	0.855	0.693	0.839	0.949	0.932	0.869	1.01	0.334	0.343	0.377	0.343	0.295		0.4	0.59	0.328	0.369
LK-2	0.667	0.653	0.557	0.573			0.174	0.211	0.177			0.174	0.146	0.19	0.598		0.78	0.702	0.859
NCI-H441	0.557	0.428	0.592	0.573		0.299	0.278	0.282	0.322		0.551	0.491	0.462	0.454	0.689		0.48	0.486	0.559
PC-14	0.761	0.665	0.715	0.553		0.147	0.12	0.192	0.149		0.604	0.638	0.551	0.356	0.209	0.286	0.291	0.263	0.217
